Source: patent US8748618B2, “Inhibitors of inv(16) leukemia” (University of Virginia Patent Foundation, priority 2009, dated 2014)

What was measured:
[1] = ip injection; NCI Developmental Therapeutics website; cited from earlier work
NCI 60 cell lines = details: for 79% of the cell lines; cited from earlier work
CBFβ = CBFβ (Homo sapiens (Human), UniProt Q13951); assay: NMR chemical shift perturbation with CBFβ; assay type: binding; details: for NMR with CBFβ + 250 uM compound, CSP G 112: residue G 112; for NMR with CBFβ + 250 uM compound, CSP K 98: residue K 98; for Precipitation in the NMR sample: 250 uM compound with CBFβ
From the text: Validation of binding of a small molecule inhibitor to its protein target is an essential step in developing potent inhibitors. This can be readily achieved using either NMR spectroscopy or X-ray crystallography. In the case of X-ray crystallography, this is achieved by co-crystallization of the protein with the ligand and determination of the structure. In the case of NMR spectroscopy, the structure of a compound-protein complex can also be determined. In addition, chemical shift perturbations of the protein NMR spectrum (typically 2D ^15N—^1H HSQC or ^13C—^1H HSQC) in the presence of compounds can both confirm binding to the target and localize the binding site on a protein (Pellecchia, Sem et al. 2002; Salvatella and Giralt 2003). The latter method is a quick and efficient method to confirm binding to the protein and to determine the binding site when appropriate labeled samples are available and the resonance assignments are known. Such data can also be used to dock the small molecule to the protein. Because the structure of CBFβ has been solved by NMR (Huang, Peng et al. 1999), resonance assignments are available and we have employed this approach as an additional screen to ensure the validity of the inhibitors we are developing and to determine the binding site (see below).

[2] = biological target: CBFβ-SMMHC:RD (CBFβ-SMMHC binding to the Runt domain); assay: FRET assay, inhibition of CBFβ-SMMHC binding to the Runt domain; details: for IC50 FRET (CBFβ-SMMHC:RD, 20 nM both): 20 nM both proteins
Description: FRET assay. […] We fused the green fluorescent protein derivative Cerulean to the N-terminus of the Runt domain and the green fluorescent protein derivative Venus to the N-terminus of CBFβ-SMMHC (as well as to CBFβ (Gorczynski, Grembecka et al. 2007)). The ratio of the emission intensities at 525 nm and 474 nm, measured after excitation at 433 nm, was used as the readout in this assay. The dynamic range for the FRET assay was determined by adding a 30-fold excess of untagged CBFβ-SMMHC (or CBFβ in the case of CBFβ—Runt domain binding) to the assay and the associated change in the FRET ratio was defined as 100% inhibition.
As shown by Shoichet and co-workers (Seidler, McGovern et al. 2003), a primary source of false positives in any screen is micelle formation. […] A substantial loss of activity in the presence of detergent is a hallmark of inhibition by micelle formation and such compounds are thus identified as false positives. In addition, we are also incubating compound with protein and checking by mass spectroscopy to ensure that positive hits are not acting by covalent addition to either of the proteins.

ME-1 cells [3] = assay: Apoptosis by flow cytometry, Annexin V/PI positivity; assay type: cell-based, human; details: FIG. 4C
From the text: (§1) We have tested several of the compounds we have synthesized for their effects on ME-1 cells, a leukemia cell line harboring the inv(16) (Yanagisawa, Horiuchi et al. 1991). […] AI-4-57 has also been tested against the Kasumi-1, Jurkat, and RS4; 11 leukemia cell lines (FIG. 4.B). […] We have also examined effects on apoptosis using flow cytometry to measure Annexin V/PI (propidium iodide) positivity. […] The selectivity for specific cell lines and the correlation of activity in the FRET assay with effects on inv(16) cells all support the hypothesis that the compounds are hitting the desired target.

ME-1 cells [4] = assay: MTT viability assay, growth of ME-1 cells; assay type: cell-based, human; details: MTT, FIG. 4A
From the text: as §1
The dimer with a 7 atom linker (AI-4-62) has been tested for effects on the growth of the ME-1 cell line (see FIG. 7), a leukemia cell line with the inv(16).

Kasumi-1 cells = assay: MTT assay, growth of Kasumi-1 cells; assay type: cell-based; details: MTT, FIG. 4B
From the text: as §1
(§2) Below are two exemplary dimeric compound formulas, shown here without the possible substituents indicated elsewhere herein.

Jurkat cells = assay: MTT assay, growth of Jurkat cells; assay type: cell-based; details: MTT, FIG. 4B
From the text: as §1, §2

RS4; 11 cells = assay: MTT assay, growth of RS4;11 cells; assay type: cell-based; details: MTT, FIG. 4B
From the text: as §1, §2

CBFβ, sequence (Q13951 1-141, species assumed): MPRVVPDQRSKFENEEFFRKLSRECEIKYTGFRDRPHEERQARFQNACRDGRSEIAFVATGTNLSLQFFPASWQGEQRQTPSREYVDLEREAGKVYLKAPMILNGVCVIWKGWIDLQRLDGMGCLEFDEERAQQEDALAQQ

Row | Structure (SMILES) | NMR with CBFβ + 250 uM compound, CSP G 112 (CBFβ; 250 uM compound) [ppm] | NMR with CBFβ + 250 uM compound, CSP K 98 (CBFβ; 250 uM compound) | NMR with CBFβ + 250 uM compound, CSP G 112/K 98 (in words) (CBFβ; 250 uM compound) | other results
1 | COc1ccc2[nH]c(-c3ccccn3)nc2c1 [NCI-320656, reference compound] | 0.039 | 0.026 ppm | – | Tolerated by mice [1]: up to 200 mg/kg/day; GI50 (NCI 60 cell lines): ≥ 100 µM
2 | O=C(O)c1ccc2[nH]c(-c3ccccn3)nc2c1 [AI-10-57] | – | – | No CSP | –
3 | Fc1ccc2[nH]c(-c3ccccn3)nc2c1 [LD-1-31] | – | – | No CSP | Precipitation in the NMR sample (CBFβ): Strong precipitation
4 | Cc1ccc2[nH]c(-c3ccccn3)nc2c1C [LD-1-23] | – | – | No CSP | Precipitation in the NMR sample (CBFβ): some precipitation
5 | FC(F)(F)Oc1cc2nc(-c3ccccn3)[nH]c2cc1N1CCCC1 [AI-10-97] | 0.012 | 0.006 ppm | – | IC50 FRET (CBFβ-SMMHC:RD, 20 nM both) ([2]; Table 1 monomers): Interference with assay
6 | CSc1ccc2[nH]c(-c3ccccn3)nc2c1 [AI-10-35] | 0.037 | 0.027 ppm | – | –
7 | COc1ccc(-c2nc3cc(OC)ccc3[nH]2)nc1 [AI-4-61] | 0.015 | 0.013 ppm | – | –
8 | COc1ccc2[nH]c(-c3ncccc3OC)nc2c1 [AI-10-53] | 0.028 | 0.02 ppm | – | –
9 | Cc1cccnc1-c1nc2cc(OC(F)(F)F)ccc2[nH]1 [AI-10-63] | – | – | – | Δ500 [2]: Δ500 = 61%
10 | c1ccc(-c2nc3cc(N4CCOCC4)ccc3[nH]2)nc1 [AI-10-3] | – | – | No CSP | –
11 | CN(C)c1ccc2[nH]c(-c3ccc(OCCOCCOc4ccc(-c5nc6cc(N(C)C)ccc6[nH]5)nc4)cn3)nc2c1 [AI-10-21] | – | – | – | IC50 FRET (CBFβ-SMMHC:RD, 20 nM both) ([2]; Table 2 dimers): Interference with assay
12 | CCOc1ccc2[nH]c(-c3ccccn3)nc2c1 [LD-1-29] | 0.026 | no change | – | Apoptosis (AnnexinV/PI) (ME-1 cells [3]; 40 μM): substantial apoptosis; Percentage of apoptotic cells (AnnexinV/PI) (ME-1 cells [3]; 3 different concentrations): clear dose-dependent increase in the percentage of apoptotic cells; Growth of ME-1 cells (ME-1 cells [4]): effective inhibition of growth
13 | FC(F)(F)Oc1ccc2[nH]c(-c3ncccc3C(F)(F)F)nc2c1 [AI-10-64] | – | – | – | Δ500 [2]: Δ500 = 50%
14 | COc1ccnc(-c2nc3cc(OC)ccc3[nH]2)c1 [LD-2-101] | – | – | No CSP | –
15 | c1ccc(-c2nc3cc(N4CCCC4)ccc3[nH]2)nc1 [AI-10-83] | 0.087 | 0.039 ppm | – | IC50 FRET (CBFβ-SMMHC:RD, 20 nM both) ([2]; Table 1 monomers): Interference with assay; NMR with CBFβ + 250 uM compound, CSP L 97 (CBFβ; 250 uM compound, residue L 97): 0.034 ppm
16 | COc1ccc2[nH]c(-c3cccc(C)n3)nc2c1 [LD-2-89] | – | – | – | Δ333 [2]: Δ333 = 17%

Row | Structure (SMILES) | NMR with CBFβ + 250 uM compound, CSP G 112 (CBFβ; 250 uM compound) [ppm] | NMR with CBFβ + 250 uM compound, CSP K 98 (CBFβ; 250 uM compound) | NMR with CBFβ + 250 uM compound, CSP G 112/K 98 (in words) (CBFβ; 250 uM compound) | other results
17 | COc1ccc(-c2nc3cc(OC)ccc3[nH]2)c(O)c1 [LD-1-73] | – | – | – | Δ110 [2]: Δ110 = 30%
18 | FC(F)(F)Oc1ccc2[nH]c(-c3ccccn3)nc2c1 [AI-10-47] | – | – | No CSP | Precipitation in the NMR sample (CBFβ): some precipitation
19 | c1cc(-c2nc3cc(N4CCCC4)ccc3[nH]2)ncc1OCCOCCOc1ccc(-c2nc3cc(N4CCCC4)ccc3[nH]2)nc1 [AI-10-98] | – | – | – | IC50 FRET (CBFβ-SMMHC:RD, 20 nM both) ([2]; Table 2 dimers): Interference with assay
20 | COc1ccc(-c2nc3cc(N4CCCC4)ccc3[nH]2)nc1 [AI-10-101] | – | – | – | IC50 FRET (CBFβ-SMMHC:RD, 20 nM both) ([2]; Table 1 monomers): Interference with assay
21 | COc1ccc2[nH]c(-c3ccccn3)nc2c1 [AI-4-57] | 0.039 | 0.026 ppm | – | Growth of Kasumi-1 cells (Kasumi-1 cells): modest effect; Growth of Jurkat cells (Jurkat cells): No effect on growth; Growth of RS4;11 cells (RS4; 11 cells): No effect on growth; Growth of ME-1 cells (ME-1 cells [4]): effective inhibition of growth
22 | COc1ccc2[nH]c(-c3ncccc3C(F)(F)F)nc2c1 [AI-10-69] | – | – | – | Δ167 [2]: Δ167 = 18%
23 | FC(F)(F)Oc1cc(-c2cccnc2)c2[nH]c(-c3ccccn3)nc2c1 [AI-10-96] | – | – | No CSP | –
24 | FC(F)(F)c1cccc2[nH]c(-c3ccccn3)nc12 [AI-4-47] | – | – | – | IC50 FRET (CBFβ-SMMHC:RD, 20 nM both) ([2]; Table 1 monomers): Interference with assay
25 | COc1c(F)cc2[nH]c(-c3ccccn3)nc2c1F [LD-1-39] | – | – | No CSP | –
26 | Oc1ccc2[nH]c(-c3ccccn3)nc2c1 [AI-10-61] | – | – | No CSP | –
27 | c1ccc(-c2nc3cc(N4CCCCC4)ccc3[nH]2)nc1 [AI-10-82] | 0.032 | 0.016 ppm | – | IC50 FRET (CBFβ-SMMHC:RD, 20 nM both) ([2]; Table 1 monomers): Interference with assay
28 | c1ccc(-c2nc3cc(-n4ccnc4)ccc3[nH]2)nc1 [AI-10-88] | – | – | No CSP | –
29 | CN(C)c1ccc2[nH]c(-c3ccccn3)nc2c1 [LD-2-63] | 0.037 | 0.023 ppm | – | IC50 FRET (CBFβ-SMMHC:RD, 20 nM both) ([2]; Table 1 monomers): Interference with assay
30 | CC(C)Oc1ccc2[nH]c(-c3ccccn3)nc2c1 [AI-4-70] | – | – | No CSP | –
31 | NC(=O)c1ccc2[nH]c(-c3ccccn3)nc2c1 [AI-10-70] | – | – | – | Δ500 [2]: Δ500 = 61%
